Results reported in ChEMBL document CHEMBL1201862, “PubChem BioAssay data set” (2004).
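Growth conditions: 96-well plates. Treatment: test compound, 48 hours, 5 concentrations. Analysis: linear interpolation between bracketing concentrations; unreached endpoints set to highest concentration. Here, GI50 denotes the concentration required for 50% inhibition of growth.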 Active and inactive are the calls of the source. Rule as the data show it: active = GI50 up to about 1.1 µM and inactive = higher.

Legend:
Assay in all cases: NCI-60 cell line screen, 48 h
SK-MEL-5 = tested on: SK-MEL-5
MDA-N = tested on: MDA-N
SF-295 = tested on: SF-295
ACHN = tested on: ACHN
NCI/ADR-RES = tested on: NCI/ADR-RES
CAKI-1 = tested on: CAKI-1
OVCAR-8 = tested on: OVCAR-8
TK-10 = tested on: TK-10
HOP-62 = tested on: HOP-62
PC-3 = tested on: PC-3
BT-549 = tested on: BT-549
K562 = tested on: K562
CCRF-CEM = tested on: CCRF-CEM
IGROV-1 = tested on: IGROV-1
OVCAR-3 = tested on: OVCAR-3
HT-29 = tested on: HT-29
SNB-19 = tested on: SNB-19
SR = tested on: SR
T47D = tested on: T47D

Row | SMILES | GI50 (SK-MEL-5) | GI50 (MDA-N) | GI50 (SF-295) | GI50 (ACHN) | GI50 (NCI/ADR-RES) | GI50 (CAKI-1) | GI50 (OVCAR-8) | GI50 (TK-10) | GI50 (HOP-62) | GI50 (PC-3) | GI50 (BT-549) | GI50 (K562) | GI50 (CCRF-CEM) | GI50 (IGROV-1) | GI50 (OVCAR-3) | GI50 (HT-29) | GI50 (SNB-19) | GI50 (SR) | GI50 (T47D)
1 | COc1ccc2[nH]c3nnc(N)c-3nc2c1 | 8.09 µM (inactive) | 12 µM (inactive) | 7.66 µM (inactive) | 3.33 µM (inactive) | 7.01 µM (inactive) | 5.66 µM (inactive) | 5.62 µM (inactive) | 11.3 µM (inactive) | 6.14 µM (inactive) | 8.43 µM (inactive) | 13.6 µM (inactive) | 62.4 µM (inactive) | 9.31 µM (inactive) | 2.59 µM (inactive) | 3.61 µM (inactive) | 5.58 µM (inactive) | 16.5 µM (inactive) | 4.1 µM (inactive) | 7.5 µM (inactive)
2 | C/C=C/c1cc2c(cc1O)CC[C@@H]1[C@@H]2CC[C@]2(C)[C@@H](O)CC[C@@H]12 | 0.0289 µM (active) | 0.0215 µM (active) | 0.966 µM (active) | 0.0594 µM (active) | 0.0246 µM (active) | 0.0144 µM (active) | 0.182 µM (active) | 14.3 µM (inactive) | 0.0791 µM (active) | 2.37 µM (inactive) | 1.6 µM (inactive) | 0.016 µM (active) | 0.0289 µM (active) | 1.96 µM (inactive) | 0.0193 µM (active) | 6.34 µM (inactive) | 0.0695 µM (active) | 0.0259 µM (active) | 14.8 µM (inactive)
3 | O=[N+]([O-])c1ccc2c(c1)C(N1CCN(CCO)CC1)Cc1ccc(F)cc1S2 (stereo not given) | 1.8 µM (inactive) | 11 µM (inactive) | 4.14 µM (inactive) | 4.44 µM (inactive) | 10.3 µM (inactive) | 13.1 µM (inactive) | 11.3 µM (inactive) | 13.7 µM (inactive) | 17.1 µM (inactive) | 2.65 µM (inactive) | 10.8 µM (inactive) | 2.29 µM (inactive) | 3.18 µM (inactive) | 3.85 µM (inactive) | 16.4 µM (inactive) | 2.49 µM (inactive) | 10.7 µM (inactive) | 4.04 µM (inactive) | 17.4 µM (inactive)
4 | COc1cc(Cn2c3c(c4c(C(=O)NCCN(C)C)c(O)ccc42)C(=O)c2ccccc2C3=O)cc(OC)c1 | 1.67 µM (inactive) | 1.63 µM (inactive) | 1.92 µM (inactive) | 1.48 µM (inactive) | 2.32 µM (inactive) | 1.68 µM (inactive) | 1.91 µM (inactive) | 1.61 µM (inactive) | 2 µM (inactive) | 1.7 µM (inactive) | 2.23 µM (inactive) | 1.37 µM (inactive) | 0.601 µM (active) | 1.73 µM (inactive) | 1.73 µM (inactive) | 1.87 µM (inactive) | 2.51 µM (inactive) | 0.31 µM (active) | 1.8 µM (inactive)
5 | CC[C@@H]1/C=C/C=C/C[C@H](C)[C@@H](O)[C@@H](C)C(=O)[C@H](C)[C@@H](O)[C@H](C)C(=O)[C@H](C)[C@@H](O)[C@H](C)/C=C/C(=O)O[C@H]2[C@@H](C)[C@@H](CC1)O[C@@]1(CC[C@@H](C)[C@@H](CC(C)O)O1)[C@@H]2C (stereo not given in full) | < 0.0025 µM (active) | 3.06 µM (inactive) | < 0.0025 µM (active) | 0.17 µM (active) | 0.596 µM (active) | 4.15 µM (inactive) | 0.00464 µM (active) | 0.528 µM (active) | 4.38 µM (inactive) | 0.00678 µM (active) | 4.32 µM (inactive) | 0.00504 µM (active) | 1.75 µM (inactive) | 4.48 µM (inactive) | 2.62 µM (inactive) | 2.94 µM (inactive) | 0.00491 µM (active) | 3.01 µM (inactive) | < 0.0025 µM (active)
6 | COc1ccc(C(c2ccccc2)N2C(=O)CCC2C(=O)O)cc1OC (stereo not given) | > 100 µM (inactive) | > 100 µM (inactive) | > 100 µM (inactive) | > 100 µM (inactive) | > 100 µM (inactive) | > 100 µM (inactive) | > 100 µM (inactive) | > 100 µM (inactive) | > 100 µM (inactive) | > 100 µM (inactive) | > 100 µM (inactive) | > 100 µM (inactive) | > 100 µM (inactive) | > 100 µM (inactive) | > 100 µM (inactive) | > 100 µM (inactive) | > 100 µM (inactive) | > 100 µM (inactive) | > 100 µM (inactive)
7 | CC1(C)Cc2c(cnn2-c2ccc(C(F)(F)F)cc2)-c2[nH]c(-c3ccc(O)cc3)nc21 | 16.9 µM (inactive) | 14.6 µM (inactive) | 16 µM (inactive) | 14.6 µM (inactive) | 19.5 µM (inactive) | 17.4 µM (inactive) | 20.8 µM (inactive) | 16.5 µM (inactive) | 21.4 µM (inactive) | 16 µM (inactive) | 12.8 µM (inactive) | 5.15 µM (inactive) | 2.18 µM (inactive) | 19.4 µM (inactive) | 13.9 µM (inactive) | 3.99 µM (inactive) | 16.6 µM (inactive) | 4.71 µM (inactive) | 16.7 µM (inactive)
8 | CC(=O)Oc1ccc(C2SCc3nc4ccccc4n32)cc1 (stereo not given) | 24.7 µM (inactive) | 14.8 µM (inactive) | 21.7 µM (inactive) | 30.8 µM (inactive) | 14.8 µM (inactive) | 24.4 µM (inactive) | 18.7 µM (inactive) | 35.2 µM (inactive) | 41 µM (inactive) | 24.2 µM (inactive) | 6.4 µM (inactive) | 7.23 µM (inactive) | 26.5 µM (inactive) | 30.7 µM (inactive) | 24.4 µM (inactive) | 23.3 µM (inactive) | 50.6 µM (inactive) | 15.6 µM (inactive) | 18.3 µM (inactive)
9 | Cc1nc2ccc(Cl)cc2c2c1CCN2c1ccccc1 | 7.53 µM (inactive) | 1.5 µM (inactive) | 5.47 µM (inactive) | 16.9 µM (inactive) | 11.7 µM (inactive) | 11.5 µM (inactive) | 15 µM (inactive) | 12.7 µM (inactive) | 21.5 µM (inactive) | 10.6 µM (inactive) | 15.3 µM (inactive) | 5.05 µM (inactive) | 5.62 µM (inactive) | 14.3 µM (inactive) | 10.3 µM (inactive) | 7.18 µM (inactive) | 23.5 µM (inactive) | 14.3 µM (inactive) | 14.5 µM (inactive)
10 | CN1CCc2cc(N)cc3c2C1Cc1ccc2c(c1-3)OCO2 (stereo not given) | 20.4 µM (inactive) | 19.2 µM (inactive) | 31.9 µM (inactive) | 26.3 µM (inactive) | 24.3 µM (inactive) | 41.5 µM (inactive) | 21.6 µM (inactive) | 45.8 µM (inactive) | 34.8 µM (inactive) | 42.7 µM (inactive) | 43 µM (inactive) | 27 µM (inactive) | 1.97 µM (inactive) | 20.5 µM (inactive) | 27.1 µM (inactive) | 30.7 µM (inactive) | 61.8 µM (inactive) | 11 µM (inactive) | 36.1 µM (inactive)
